Source: ChEMBL document CHEMBL5150076, “Discovery of Novel Orally Bioavailable Triazoles with Potent and Broad-Spectrum Antifungal Activity In Vitro and In Vivo” (J Med Chem, 2022)
≈ marks a conversion by molar mass, not a printed value.

What was measured:
[1] = biological target: Lanosterol 14-alpha demethylase (Candida albicans (strain SC5314 / ATCC MYA-2876) (Yeast), UniProt P10613); assay: Inhibition of CYP51 in Candida albicans SC5314 assessed as lanosterol level at 0.0625 ug/ml measured after 12 hrs by GC-MS analysis (reference value: 2.18%); parameters: scale not given: the % may be the effect or the level left; settings: dose 0.0625 µg/ml
Sequence of Lanosterol 14-alpha demethylase (P10613 whole entry): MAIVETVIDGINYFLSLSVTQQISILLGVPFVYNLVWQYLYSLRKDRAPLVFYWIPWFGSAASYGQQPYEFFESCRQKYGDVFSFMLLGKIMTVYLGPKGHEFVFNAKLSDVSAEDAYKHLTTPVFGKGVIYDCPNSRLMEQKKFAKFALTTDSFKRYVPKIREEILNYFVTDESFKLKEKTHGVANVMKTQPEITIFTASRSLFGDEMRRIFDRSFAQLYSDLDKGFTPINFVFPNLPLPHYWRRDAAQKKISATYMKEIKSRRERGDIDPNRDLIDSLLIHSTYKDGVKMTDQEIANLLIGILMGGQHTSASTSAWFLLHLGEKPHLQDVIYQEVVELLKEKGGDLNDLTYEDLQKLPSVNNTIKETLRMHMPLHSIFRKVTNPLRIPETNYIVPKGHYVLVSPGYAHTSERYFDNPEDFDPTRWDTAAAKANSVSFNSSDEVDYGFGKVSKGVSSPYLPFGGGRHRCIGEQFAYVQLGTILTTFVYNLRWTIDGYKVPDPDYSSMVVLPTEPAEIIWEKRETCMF

[2] = test system: Pichia kudriavzevii; assay: Antifungal activity against Candida krusei 397; assay type: functional
[3] = test system: Candida albicans; assay: Antifungal activity against Candida albicans 25#; assay type: functional
[4] = test system: Candida albicans; assay: Antifungal activity against Candida albicans 28#; assay type: functional
[5] = test system: Candida albicans; assay: Inhibition of biofilm formation in Candida albicans SC5314 at 0.0625 ug/ml relative to control; assay type: functional
[6] = test system: Candida albicans; assay: Antifungal activity against Candida albicans SC5314 infected in ICR mouse assessed as median survival time at 0.25 mg/kg, po qd infected with fungus for 2 hrs prior to compound addition for 7 days and measured for 20 days; assay type: functional; settings: time 20 day
[7] = test system: Pichia kudriavzevii; assay: Antifungal activity against Candida krusei 467; assay type: functional
[8] = Induction of drug resistance in Candida albicans SC5314 assessed as increase in MIC after 26 days (reference value: 0.0313 microg/ml); assay type: functional; settings: SC5314, 624 h, time 26 day
[9] = test system: [Candida] auris; assay: Antifungal activity against Candida auris BS12372; assay type: functional; settings: Candidozyma auris
[10] = Cytotoxicity against HUVEC assessed as cell viability at 64 ug/ml incubated for 24 hrs by CCK-8 assay; assay type: toxicity, cell-based; settings: human, HUVEC cells, dose 64 µg/ml, read-out: Activity
[11] = test system: Candida albicans; assay: Antifungal activity against Candida albicans Y0109; assay type: functional
[12] = Cmax in Sprague-Dawley rat at 5 mg/kg, po by LC-MS analysis; assay type: ADME, organism-based; parameters: dose 5 mg/kg, route po; settings: in vivo
[13] = test system: Candida tropicalis; assay: Antifungal activity against Candida tropicalis ATCC750; assay type: functional
[14] = test system: Aspergillus fumigatus; assay: Antifungal activity against Aspergillus fumigatus 7544 infected in ICR mouse assessed as survival rate at 20 mg/kg, po qd infected with fungus for 2 hrs prior to compound addition for 7 days and measured for 20 days; assay type: functional; settings: time 20 day
[15] = test system: Candida albicans; assay: Antifungal activity against Candida albicans 100 infected in ICR mouse assessed as median survival time at 0.25 mg/kg, po qd infected with fungus for 2 hrs prior to compound addition for 7 days and measured for 20 days; assay type: functional; settings: time 20 day
[16] = test system: Candida parapsilosis; assay: Antifungal activity against Candida parapsilosis 700; assay type: functional; settings: Lodderomyces parapsilosis
[17] = test system: Trichophyton rubrum; assay: Antifungal activity against Trichophyton rubrum cmccftla; assay type: functional

Compound `C[C@@H](c1cn(-c2ccc(Cl)cc2F)nn1)[C@](O)(Cn1cncn1)c1ccc(F)cc1F` has an Activity [1] of 6.46%, an MIC [2] of 0.125 µg/mL (≈ 0.278 µM) and an MIC [3] of 16 µg/mL (≈ 35.6 µM). The MIC [4] was ≤ 0.0313 µg/mL, the inhibition at 0.0625 µg/mL [5] was 75% and the Time [6] was 13.5 days. For the same compound, the MIC [7] was 0.125 µg/mL (≈ 0.278 µM), the MIC [8] was 0.125 µg/mL and the MIC [9] was 0.25 µg/mL (≈ 0.557 µM). For the same compound, the viability at 24 h, 64 ug/ml [10] was 89.1%, the MIC [11] was 0.0156 µg/mL (≈ 0.0348 µM) and the Cmax [12] was 837 ng/mL. The MIC [13] was 8 µg/mL (≈ 17.8 µM), the Activity [14] was 30% and the Time [15] was 14 days. For the same compound, the MIC [16] was 0.0625 µg/mL (≈ 0.139 µM) and the MIC [17] was 0.125 µg/mL (≈ 0.278 µM).
